{"source": "paper PMC8881610", "about": "(Nature Communications, 2022)", "experiment_in_all_cases": "Whole-cell binding assay, competition with 125I-GIP1-42", "parameters_in_all_cases": "acylated tirzepatide to the full-length or modified; Flag; expressed in transfected cells", "key": {"GIPR [1]": {"target": "T1, GIPR (Homo sapiens, UniProt P48546, R192A)", "T1 sequence (P48546 22-466 R192A)": "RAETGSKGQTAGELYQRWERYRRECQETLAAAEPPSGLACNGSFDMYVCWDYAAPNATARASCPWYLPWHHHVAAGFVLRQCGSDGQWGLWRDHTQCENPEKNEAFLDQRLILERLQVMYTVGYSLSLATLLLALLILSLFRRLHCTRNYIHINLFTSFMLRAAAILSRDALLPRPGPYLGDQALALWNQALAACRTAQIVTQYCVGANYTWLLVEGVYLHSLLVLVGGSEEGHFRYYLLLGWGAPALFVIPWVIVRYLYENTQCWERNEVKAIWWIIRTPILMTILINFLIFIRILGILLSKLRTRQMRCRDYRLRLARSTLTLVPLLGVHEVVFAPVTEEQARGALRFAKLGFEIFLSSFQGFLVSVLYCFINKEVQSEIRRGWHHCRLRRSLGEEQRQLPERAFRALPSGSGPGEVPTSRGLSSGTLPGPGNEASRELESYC", "conditions": "GIPR R192A, CHO-K1", "in_short": "(§1)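 Transiently transfected CHO-K1 cells expressing WT or mutant GIPR were washed in F-12 with 0.1% BSA or 0.1% casein and 33 mM HEPES, then incubated 2 h at 37 °C. After ice-cold PBS washes, cells were lysed and bound radioactivity counted (CPM).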"}, "GIPR [2]": {"target": "T2, GIPR (Homo sapiens, UniProt P48546, W209A)", "T2 sequence (P48546 22-466 W209A)": "T1 sequence (P48546 22-466 R192A) with A171R, W188A", "conditions": "GIPR W209A, CHO-K1", "in_short": "as §1"}, "GIPR [3]": {"target": "T3, GIPR (Homo sapiens, UniProt P48546, D191A/Q138A/R196A)", "T3 sequence (P48546 22-466 Q138A/D191A/R196A)": "T1 sequence (P48546 22-466 R192A) with Q117A, D170A, A171R, R175A", "conditions": "GIPR Q138A/D191A/R196A, CHO-K1", "in_short": "as §1"}, "[4]": {"conditions": "read-out: binding pIC50 (converted)"}}, "note": "Substitutions are numbered along the chain they refer to."}
{"smiles": "CCCCCCCCCCCCCCCC(=O)N[C@@H](CCC(=O)NCCCC[C@H](NC(=O)[C@H](CC(=O)O)NC(=O)[C@H](CO)NC(=O)[C@@H](NC(=O)[C@H](Cc1ccccc1)NC(=O)[C@@H](NC(=O)CNC(=O)[C@H](CCC(N)=O)NC(=O)C(C)(C)NC(=O)[C@@H](N)Cc1c[nH]cn1)[C@@H](C)O)[C@@H](C)O)C(=O)N[C@@H](CO)C(=O)N[C@@H](CCCCN)C(=O)N[C@@H](Cc1ccc(O)cc1)C(=O)N[C@@H](CC(C)C)C(=O)N[C@@H](CC(=O)O)C(=O)N[C@@H](CCC(=O)O)C(=O)N[C@@H](CCCNC(=N)N)C(=O)N[C@@H](C)C(=O)N[C@@H](C)C(=O)N[C@@H](CCC(N)=O)C(=O)N[C@@H](CC(=O)O)C(=O)N[C@@H](Cc1ccccc1)C(=O)N[C@H](C(=O)N[C@@H](CCC(N)=O)C(=O)N[C@@H](Cc1c[nH]c2ccccc12)C(=O)N[C@@H](CC(C)C)C(=O)N[C@@H](CC(C)C)C(=O)N[C@@H](CC(=O)O)C(=O)NCC(=O)NCC(=O)N1CCC[C@H]1C(=O)N[C@@H](CO)C(=O)N[C@@H](CO)C(=O)NCC(=O)N[C@@H](C)C(=O)N1CCC[C@H]1C(=O)N1CCC[C@H]1C(=O)N1CCC[C@H]1C(=O)N[C@@H](CO)C(N)=O)C(C)C)C(=O)O", "note": "[Peptide 20]", "values": [{"measurement": "binding Span", "setting": "GIPR [1]", "result": "71.60 ± 4.11", "unit": "% WT"}, {"measurement": "IC50", "setting": "GIPR [1]; [4]", "result": 24, "unit": "nM"}, {"measurement": "binding Span", "setting": "GIPR [2]", "result": "96.83 ± 6.13", "unit": "% WT"}, {"measurement": "IC50", "setting": "GIPR [2]; [4]", "result": 20, "unit": "nM"}, {"measurement": "binding Span", "setting": "GIPR [3]", "result": "1.03 ± 0.94", "unit": "% WT"}, {"measurement": "IC50", "setting": "GIPR [3]; [4]", "result": 2.4, "unit": "nM"}]}
